From PubChem BioAssay (NCI)
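Method: 48-hour compound exposure of cells in 96-well plates, five concentrations, linear interpolation of endpoints. TGI: total growth inhibition.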

System: HOP-92 NSCLC
Assay: NCI tumour cell line growth inhibition, 48 h

`N=C1C(=N)c2ccccc2-c2ccccc21.[Cl-].[Ru+2].c1cnc2c(c1)ccc1cccnc12.c1cnc2c(c1)ccc1cccnc12` and `O=C(CSc1ncccn1)N/N=C/c1ccccc1OCc1ccccc1` are within 1.5-fold of each other in TGI: 67.9 µM for the first, 78.3 µM for the second.

`NCc1ccc(-c2ccc(CN)s2)s1` and `Cn1c(-c2cccs2)cc(-c2cccs2)c1-c1cccs1` cannot be ordered by TGI: greater than 100 µM for the first, greater than 100 µM for the second.

`NC(CSS(=O)(=O)O)=NC1CC2CCC1C2` (stereo not given) and `C[C@]12CCC(O)CC1=CC[C@@H]1[C@@H]2CC[C@]2(C)C(O)[C@H](n3ccnc3)C[C@@H]12` (stereo not given in full) cannot be ordered by TGI: greater than 100 µM for the first, greater than 100 µM for the second.

`CCC1CN2CCc3cc(OC)c(OC)cc3C2CC1CC1c2cc(OC)c(OC)cc2CCN1C(=O)C(N)Cc1ccccc1` (stereo not given) and `CN1CCC23c4c5ccc(Oc6nnnn6-c6ccccc6)c4OC2c2[nH]c4ccccc4c2CC3(O)C1C5` (stereo not given) are within 1.5-fold of each other in TGI: 6.41 µM for the first, 7.71 µM for the second.

Going from `CC(C)OC(=O)c1ccc(NCC2=CC(=O)C=CC2=O)cc1` to `O=C(O)c1cccc(Nc2c(C(=O)O)cccc2[N+](=O)[O-])c1`, the TGI rises from 8.83 µM to greater than 100 µM.

`COc1cccc(Nc2nc(C)c([N+](=O)[O-])c(Nc3cccc(OC)c3)n2)c1` and `O=C1c2ccccc2-c2nnc(-c3ccc([N+](=O)[O-])cc3)cc21` cannot be ordered by TGI: greater than 100 µM for the first, greater than 10 µM for the second.

`CC(C)C[C@H]1[C@@H](OCc2ccccc2)COS(=O)(=O)N1[C@H](C)c1ccccc1` and `CN1CCCC2C(c3ccccc3)C(C3=NCCCC3)C(c3ccccc3)CC21` (stereo not given) cannot be ordered by TGI: greater than 100 µM for the first, greater than 100 µM for the second.

`COC(=O)c1ccccc1/C=C1\Cc2c(C)c3c(c(C)c2C1=O)CCC3` and `CCOC(=O)/C(C#N)=C/Nc1c(C)n(C)n(-c2ccccc2)c1=O` cannot be ordered by TGI: greater than 100 µM for the first, greater than 100 µM for the second.

`O=c1[nH]c2cccc([N+](=O)[O-])c2c(=O)n1-c1ccc(Cl)cc1` and `CC(C)=CCc1c(O)cc(O)c2c1OC(c1ccc(O)cc1)C(O)C2=O` (stereo not given) are within 1.5-fold of each other in TGI: 47.9 µM for the first, 39.7 µM for the second.

First: CC(=O)OC1C=C(C=O)C(O)(C=O)C2(C)CCCC(C)(C)C12 (stereo not given)
Second: CC(C)CCCC(C)[C@H]1CC[C@H]2n3c(nnc3-c3ccccc3)CCC[C@]12C (stereo not given in full)
The TGI of the first is 12-fold lower: 2.98 µM for the first, 37 µM for the second.

`C1C2CC3CC1CC(c1nn4c(C56CC7CC(CC(C7)C5)C6)nnc4s1)(C2)C3` and `C=CC(C)(C)n1cc(C2=C3OC(=O)C(c4cn(C(C)(C)C=C)c5ccccc45)=C3OC2=O)c2ccccc21` cannot be ordered by TGI: greater than 100 µM for the first, greater than 100 µM for the second.

Compared with `CCOC(=O)CC[C@H](N)C(=O)N[C@@H](Cc1ccc(N(CCCl)CCCl)cc1)C(=O)OCC`, `CCCCCCCCCCCCCCCCP(=O)(O)OCC(N)C(=O)O` (stereo not given) is 30-fold higher in TGI: 1.62 µM for the first, 48.2 µM for the second.

In the case of `NCC(Cl)C(O)c1cnc(N)[nH]1` (stereo not given), the TGI is reported as 91.4 µM.

System: DMS 273 small cell lung
Assay: NCI tumour cell line growth inhibition, 48 h

Compared with `Cc1[nH]c(=O)[nH]c(=O)c1/C=C/C(=O)NC(CO)CC(C)C` (stereo not given), `CC(=O)OC1C=C(C=O)C(O)(C=O)C2(C)CCCC(C)(C)C12` (stereo not given) is lower in TGI: greater than 375 µM for the first, 8.42 µM for the second.

Going from `CCC1CN2CCc3cc(OC)c(OC)cc3C2CC1CC1c2cc(OC)c(OC)cc2CCN1C(=O)C(N)Cc1ccccc1` (stereo not given) to `NCC(Cl)C(O)c1cnc(N)[nH]1` (stereo not given), the TGI rises from 5.22 µM to 21.4 µM (4.1-fold).

System: 786-0 renal
Assay: NCI tumour cell line growth inhibition, 48 h

First: CCOc1cccc(C=Nc2ccccc2SSc2ccccc2N=Cc2cccc(OCC)c2O)c1O
Second: O=C(CSc1ncccn1)N/N=C/c1ccccc1OCc1ccccc1
The TGI of the first is lower: 19.8 µM for the first, greater than 100 µM for the second.

Compared with `COc1cc(C(=O)NNC(=O)c2cc(Br)ccc2NC(=O)c2cccs2)cc(OC)c1OC`, `COc1cccc(Nc2nc(C)c([N+](=O)[O-])c(Nc3cccc(OC)c3)n2)c1` is higher in TGI: 45.4 µM for the first, greater than 100 µM for the second.

Compared with `C[N+]12CCCCC1C(COc1cccc3cccnc13)CCC2` (stereo not given), `CC(C)CCCC(C)[C@H]1CC[C@H]2n3c(nnc3-c3ccccc3)CCC[C@]12C` (stereo not given in full) is lower in TGI: greater than 100 µM for the first, 34.8 µM for the second.

`NC(=O)NC1NC(=O)NC1=O` (stereo not given) and `C[C@]12CC[C@H]3[C@@H](CCC4=CC(=O)CC[C@@H]43)[C@@H]1CC[C@]2(O)C(N)=O` cannot be ordered by TGI: greater than 100 µM for the first, greater than 100 µM for the second.

`CC[C@@]1(O)C(=O)OCc2c1cc1n(c2=O)Cc2c-1nc1ccccc1c2/C=N\NC(=O)C[n+]1ccccc1` and `COC(=O)c1ccccc1/C=C1\Cc2c(ccc3c2CCC3)C1=O` cannot be ordered by TGI: greater than 27.8 µM for the first, greater than 100 µM for the second.

First: CCN(CCCl)c1cc(CN(C)C)cc(NC(=O)c2ccc(C(=O)Nc3cc(CN(C)C)cc(N(CC)CCCl)c3)cc2)c1
Second: CCOC(=O)CC[C@H](N)C(=O)N[C@@H](Cc1ccc(N(CCCl)CCCl)cc1)C(=O)OCC
The TGI of the first is 1.9-fold lower: 1.3 µM for the first, 2.51 µM for the second.

Compared with `COc1ccccc1C[C@@H]1OC2(C=CC(=O)CC2SC(=O)c2ccccc2)O[C@H]1Cc1ccccc1OC` (stereo not given in full), `COc1ccc(CC2Cc3ccccc3CCN2)cc1OC` (stereo not given) is higher in TGI: 0.973 µM for the first, greater than 50 µM for the second.

`C=CCN1C(=O)/C(=C/c2ccc(Cl)cc2)N=C1SC/C=C/C` and `CSC1=N/C(=C\c2ccc(C)cc2)C(=O)N1` cannot be ordered by TGI: greater than 100 µM for the first, greater than 100 µM for the second.

`CC12Nc3c(Cl)cc(Cl)cc3N1C(=O)c1ccccc12` (stereo not given) and `Cc1ccc2c(c1)C(=O)C1(C2)Cc2c(C)cccc2C1=O` (stereo not given) cannot be ordered by TGI: greater than 100 µM for the first, greater than 100 µM for the second.

`OCC1OC(NC(=S)NCCC(F)(F)C(F)(F)C(F)(F)C(F)(F)C(F)(F)C(F)(F)F)C(O)C(O)C1O` (stereo not given) and `COc1ccc(CNc2ccn(C3OC(CO)C(O)C3O)c(=O)n2)cc1` (stereo not given) cannot be ordered by TGI: greater than 100 µM for the first, greater than 100 µM for the second.

First: Nc1cc(Cl)cc2cc(Cl)cnc12
Second: O=c1[nH]c2cccc([N+](=O)[O-])c2c(=O)n1-c1ccc(Cl)cc1
The TGI of the first is higher: greater than 100 µM for the first, 55.9 µM for the second.

`O=S(=O)(O)CCSSCCS(=O)(=O)O` and `NC(CSS(=O)(=O)O)=NC1CC2CCC1C2` (stereo not given) cannot be ordered by TGI: greater than 1000 µM for the first, greater than 100 µM for the second.

`COC(=O)/C(C)=N/NC(=S)SC` and `COC(=O)C1C2OC(C)(C)OC2CN1S(=O)(=O)c1ccc(C)cc1` (stereo not given) cannot be ordered by TGI: greater than 100 µM for the first, greater than 100 µM for the second.

`CC(=O)OCC1OC(NC(=S)Nn2c(=O)[nH]c3ccccc3c2=O)C(OC(C)=O)C(OC(C)=O)C1OC(C)=O` (stereo not given) and `COC(=O)c1ccccc1/C=C1\Cc2c(C)c3c(c(C)c2C1=O)CCC3` cannot be ordered by TGI: greater than 100 µM for the first, greater than 100 µM for the second.

Compared with `CC1=NN(c2cccc(S(=O)(=O)O)c2)C2(C1)C(Cl)C(=O)N2c1nc2ccccc2s1` (stereo not given), `O=C1CSC(c2ccccc2)N1c1nc2cc3sc(N4C(=O)CSC4c4ccccc4)nc3cc2s1` (stereo not given) is higher in TGI: 11.7 µM for the first, greater than 100 µM for the second.

First: O=c1[nH]c(=O)n(C/C=C/CO)nc1Br
Second: O=C1CC(Br)c2c(Br)sc(Br)c21 (stereo not given)
The TGI of the first is higher: greater than 100 µM for the first, 29.9 µM for the second.

`CC12CCCC(C(=O)O)(C1)[C@H](C(C)(C)C(=O)O)CC2` (stereo not given in full) and `C[C@]12CCC(O)CC1=CC[C@@H]1[C@@H]2CC[C@]2(C)C(O)[C@H](n3ccnc3)C[C@@H]12` (stereo not given in full) cannot be ordered by TGI: greater than 100 µM for the first, greater than 100 µM for the second.

`Cc1sc2nc(N(C)C)oc(=O)c2c1C` and `C=CC(C)(C)n1cc(C2=C3OC(=O)C(c4cn(C(C)(C)C=C)c5ccccc45)=C3OC2=O)c2ccccc21` cannot be ordered by TGI: greater than 100 µM for the first, greater than 100 µM for the second.

`N=C1C(=N)c2ccccc2-c2ccccc21.[Cl-].[Ru+2].c1cnc2c(c1)ccc1cccnc12.c1cnc2c(c1)ccc1cccnc12` and `O=C1c2ccccc2-c2nnc(-c3ccc([N+](=O)[O-])cc3)cc21` cannot be ordered by TGI: greater than 100 µM for the first, greater than 10 µM for the second.

`NCc1ccc(-c2ccc(CN)s2)s1` and `Cn1c(-c2cccs2)cc(-c2cccs2)c1-c1cccs1` cannot be ordered by TGI: greater than 100 µM for the first, greater than 100 µM for the second.

Going from `CC(C)OC(=O)c1ccc(NCC2=CC(=O)C=CC2=O)cc1` to `O=C(O)c1cccc(Nc2c(C(=O)O)cccc2[N+](=O)[O-])c1`, the TGI rises from 28.5 µM to greater than 100 µM.

First: CC(C)C[C@H]1[C@@H](OCc2ccccc2)COS(=O)(=O)N1[C@H](C)c1ccccc1
Second: CN1CCC23c4c5ccc(Oc6nnnn6-c6ccccc6)c4OC2c2[nH]c4ccccc4c2CC3(O)C1C5 (stereo not given)
The TGI of the first is higher: greater than 100 µM for the first, 3.33 µM for the second.

`C1C2CC3CC1CC(c1nn4c(C56CC7CC(CC(C7)C5)C6)nnc4s1)(C2)C3` and `CCCCCCCCCCCCCCCCP(=O)(O)OCC(N)C(=O)O` (stereo not given) cannot be ordered by TGI: greater than 100 µM for the first, greater than 100 µM for the second.
